Assay results reported in article PMC2362229 (British Journal of Cancer, 1999).

Key:
[1] = target: T1, Mdr1 P-gp (Rattus norvegicus, UniProt P43245); test: ATP-dependent N-pentyl-[3H]quinidinium transport in rat hepatocyte canalicular membrane vesicles; type: biochemical
T1 construct: Membrane fractions enriched in the hepatocyte canalicular membrane domain were prepared and characterized from rat and human liver; from tissue; host or cells: rat liver canalicular membrane vesicles

[2] = target: T1, Mdr1 P-gp; test: ATP-dependent [14C]doxorubicin transport in rat hepatocyte canalicular membrane vesicles; type: biochemical; conditions: read-out: half-maximal inhibition of [14C]doxorubicin transport (IC50)
[3] = target: T2, recombinant rat Mdr1b P-gp (Rattus norvegicus, UniProt P43245); test: Photoaffinity labelling with [3H]azidopine, membranes of recombinant mdr1b-BV-infected Sf9 cells; type: binding; conditions: […] GG918
T2 construct: made in house; host or cells: Sf9 insect cells, recombinant baculovirus (mdr1b-BV)
T2 sequence (P43245 whole entry): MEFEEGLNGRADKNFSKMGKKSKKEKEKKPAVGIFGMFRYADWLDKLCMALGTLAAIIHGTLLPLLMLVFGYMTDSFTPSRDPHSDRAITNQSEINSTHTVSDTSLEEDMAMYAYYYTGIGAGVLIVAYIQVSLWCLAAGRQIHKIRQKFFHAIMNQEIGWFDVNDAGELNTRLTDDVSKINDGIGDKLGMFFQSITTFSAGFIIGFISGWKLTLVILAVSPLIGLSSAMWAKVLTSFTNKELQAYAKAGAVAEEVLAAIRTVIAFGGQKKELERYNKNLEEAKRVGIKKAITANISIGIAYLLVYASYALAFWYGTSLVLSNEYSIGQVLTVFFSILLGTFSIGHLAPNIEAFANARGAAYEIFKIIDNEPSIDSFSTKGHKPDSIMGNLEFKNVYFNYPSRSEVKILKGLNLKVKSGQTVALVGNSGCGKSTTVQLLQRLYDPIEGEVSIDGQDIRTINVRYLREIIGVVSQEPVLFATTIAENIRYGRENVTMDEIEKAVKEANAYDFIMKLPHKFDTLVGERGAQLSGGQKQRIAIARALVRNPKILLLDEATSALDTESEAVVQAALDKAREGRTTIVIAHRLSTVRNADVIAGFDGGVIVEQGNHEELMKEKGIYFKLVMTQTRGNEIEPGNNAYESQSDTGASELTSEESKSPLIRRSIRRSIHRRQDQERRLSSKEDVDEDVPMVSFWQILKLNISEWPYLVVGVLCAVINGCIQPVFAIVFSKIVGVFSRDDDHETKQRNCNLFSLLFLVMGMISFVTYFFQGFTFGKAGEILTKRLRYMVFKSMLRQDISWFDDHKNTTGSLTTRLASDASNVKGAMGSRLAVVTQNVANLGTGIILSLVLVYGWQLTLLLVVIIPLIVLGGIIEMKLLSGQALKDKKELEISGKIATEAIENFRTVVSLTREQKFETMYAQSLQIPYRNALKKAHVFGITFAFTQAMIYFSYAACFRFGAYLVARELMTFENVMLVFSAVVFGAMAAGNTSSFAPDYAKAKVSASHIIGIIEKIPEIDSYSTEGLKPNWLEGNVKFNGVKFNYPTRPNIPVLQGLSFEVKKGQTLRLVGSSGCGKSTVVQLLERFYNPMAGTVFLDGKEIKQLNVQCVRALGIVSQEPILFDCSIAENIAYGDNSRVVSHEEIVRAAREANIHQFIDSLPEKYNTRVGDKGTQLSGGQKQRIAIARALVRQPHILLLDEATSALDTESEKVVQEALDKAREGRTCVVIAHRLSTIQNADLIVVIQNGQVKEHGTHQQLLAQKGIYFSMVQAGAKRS

[4] = target: T3, rat P-gp (145 kDa protein) (Rattus norvegicus, UniProt P43245); test: Photoaffinity labelling with [3H]azidopine, rat canalicular membranes; type: binding
T3 construct: Membrane fractions enriched in the hepatocyte canalicular membrane domain were prepared and characterized from rat and human liver; from tissue; host or cells: rat liver canalicular membrane vesicles
T3 sequence (P43245 whole entry, the tested form may be a part): as the sequence (P43245 whole entry) above

[5] = target: T4, conjugate export pump MRP2 (Rattus norvegicus, UniProt Q63120); test: ATP-dependent [3H]LTC4 transport in rat hepatocyte canalicular membrane vesicles; type: biochemical; conditions: LTC4 50 nM; not significantly inhibited up to 20 µM
T4 construct: Membrane fractions enriched in the hepatocyte canalicular membrane domain were prepared and characterized from rat and human liver; from tissue; host or cells: liver of male Wistar rats: canalicular membrane vesicles (A7) or the liver in vivo (A12)

[6] = target: T5, bile salt export pump (BSEP) (Rattus norvegicus, UniProt O70127); test: ATP-dependent [3H]taurocholate transport in rat hepatocyte canalicular membrane vesicles; type: biochemical; conditions: TC 5 M; 0.5% fetal calf serum; read-out: inhibition by 50% of ATP-dependent BSEP, [3H]taurocholate as substrate (IC50)
T5 construct: Membrane fractions enriched in the hepatocyte canalicular membrane domain were prepared and characterized from rat and human liver; from tissue; host or cells: liver of male Wistar rats: canalicular membrane vesicles (A8) or the liver in vivo (A13)
T5 sequence (O70127 1-1321): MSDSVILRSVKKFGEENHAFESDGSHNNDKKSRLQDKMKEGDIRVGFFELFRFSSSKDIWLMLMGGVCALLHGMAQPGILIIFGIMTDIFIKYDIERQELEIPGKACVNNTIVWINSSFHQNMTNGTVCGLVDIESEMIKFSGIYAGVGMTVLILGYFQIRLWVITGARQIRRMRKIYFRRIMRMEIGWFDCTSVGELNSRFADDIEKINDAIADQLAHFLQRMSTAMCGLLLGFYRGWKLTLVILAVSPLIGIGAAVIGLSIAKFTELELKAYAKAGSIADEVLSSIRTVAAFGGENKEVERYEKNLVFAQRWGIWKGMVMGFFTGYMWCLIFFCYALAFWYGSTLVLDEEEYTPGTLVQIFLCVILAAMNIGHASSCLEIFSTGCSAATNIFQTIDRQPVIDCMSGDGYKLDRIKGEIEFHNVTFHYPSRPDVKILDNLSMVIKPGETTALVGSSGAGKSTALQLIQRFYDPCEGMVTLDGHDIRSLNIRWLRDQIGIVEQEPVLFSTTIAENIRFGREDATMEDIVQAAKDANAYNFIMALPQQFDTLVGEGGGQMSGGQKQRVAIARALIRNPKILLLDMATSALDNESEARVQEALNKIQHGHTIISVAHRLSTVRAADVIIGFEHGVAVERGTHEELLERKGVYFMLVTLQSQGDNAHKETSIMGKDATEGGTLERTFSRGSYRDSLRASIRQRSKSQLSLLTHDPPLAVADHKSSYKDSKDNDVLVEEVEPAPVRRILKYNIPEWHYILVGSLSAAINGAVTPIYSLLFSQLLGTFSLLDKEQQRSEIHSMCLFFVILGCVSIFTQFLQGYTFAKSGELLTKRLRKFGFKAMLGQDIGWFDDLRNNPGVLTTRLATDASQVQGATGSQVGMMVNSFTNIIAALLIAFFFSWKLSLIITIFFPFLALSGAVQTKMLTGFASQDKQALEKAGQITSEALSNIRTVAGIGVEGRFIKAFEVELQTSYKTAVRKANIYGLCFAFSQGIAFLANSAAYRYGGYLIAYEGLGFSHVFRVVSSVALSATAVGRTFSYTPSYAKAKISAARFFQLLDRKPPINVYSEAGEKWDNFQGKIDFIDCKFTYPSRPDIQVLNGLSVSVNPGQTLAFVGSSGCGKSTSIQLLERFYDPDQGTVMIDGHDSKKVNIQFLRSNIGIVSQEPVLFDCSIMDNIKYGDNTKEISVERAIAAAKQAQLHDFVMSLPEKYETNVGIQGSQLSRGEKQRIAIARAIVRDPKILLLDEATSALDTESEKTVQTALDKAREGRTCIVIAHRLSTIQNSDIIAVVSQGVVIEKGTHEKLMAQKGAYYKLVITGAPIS

[7] = target: T4, conjugate export pump MRP2; test: In vivo elimination of N-[3H]acetyl-LTE4 into bile; conditions: GG918 4 mol kg1
[8] = target: T6, BSEP (Rattus norvegicus, UniProt O70127); test: In vivo elimination of [3H]taurocholate into bile; conditions: GG918 4 mol kg1 body weight
T6 construct: Membrane fractions enriched in the hepatocyte canalicular membrane domain were prepared and characterized from rat and human liver; from tissue; host or cells: liver of male Wistar rats: canalicular membrane vesicles (A8) or the liver in vivo (A13)
T6 sequence (O70127 1-1321): T5 sequence (O70127 1-1321)

[9] = Bile flow in bile duct-cannulated rats; type: in vivo, rat; conditions: GG918 4 mol kg1 body weight i.v.
[10] = tested on: MDR1 P-glycoprotein; test: in vitro; conditions: Wistar (rat), human
[11] = target: T7, Mdr1b P-gp (Rattus norvegicus, UniProt P43245); test: ATP-dependent [3H]daunorubicin transport into rat hepatocyte canalicular membrane vesicles
T7 sequence (P43245 whole entry): as the sequence (P43245 whole entry) above

[12] = target: T7, Mdr1b P-gp; test: In vivo elimination of [14C]doxorubicin into bile; design: from tissue; host or cells: liver of male Wistar rats: the liver in the living animal (A10, A11); conditions: GG918 14 mol kg1; 60 min

T1 sequence (P43245 whole entry, the tested form may be a part): as the sequence (P43245 whole entry) above

| SMILES | suppression of ATP-dependent transport of N-pentyl-[3H]quinidinium ([1]; 10 nM GG918) [%] | suppression of ATP-dependent transport of N-pentyl-[3H]quinidinium ([1]; 100 nM GG918) [%] | IC50 ([1]; rat hepatocyte canalicular membranes, substrate 1 M, read-out: half-maximal inhibition of N-pentyl-[3H]quinidinium transport (IC50)) [µM] | IC50 [2] [µM] | reduction of [3H]azidopine incorporation into the Mdr1b protein [3] [%] | reduction of [3H]azidopine labelling of rat P-gp ([4]; 40 µM GG918) [%] | reduction of [3H]azidopine labelling of rat P-gp ([4]; 10 M GG918) [%] | concentration for potent competition with [3H]azidopine photoaffinity labelling versus concentration for potent inhibition of substrate transport by Mdr1b P-gp ([4]; fold higher) | IC50 [5] [µM] | IC50 [6] [µM] | inhibition of N-[3H]acetyl-LTE4 secretion [7] | effect on biliary excretion of [3H]taurocholate [8] | bile flow [9] | IC50 [10] [µM] | Ki [11] [µM] | IC50 ([11]; IC50 Dau (Figure 7), DAU 20 M, Figure 7 inset) [µM] | IC50 ([11]; half-maximal inhibition of [3H]daunorubicin transport, [3H]daunorubicin 20 M, 0.5% fetal calf serum) [µM] | manner of inhibition of [3H]daunorubicin transport ([11]; rat canalicular inside-out vesicles, 30 nM GG918) | [14C]doxorubicin elimination suppressed to (% of untreated) [12] [%] | Vmax of ATP-dependent daunorubicin transport ([11]; Lineweaver-Burk plots, rat canalicular vesicles) [pmol mg1 min1] |
| --- | --- | --- | --- | --- | --- | --- | --- | --- | --- | --- | --- | --- | --- | --- | --- | --- | --- | --- | --- | --- |
| COc1cc2c(cc1OC)CN(CCc1ccc(NC(=O)c3cccc4c(=O)c5cccc(OC)c5[nH]c34)cc1)CC2 [GG918, N-{4-[2-(1,2,3,4-tetrahydro-6,7-dimethoxy-2-isoquinolinyl)-ethyl]-phenyl}-9,10-dihydro-5-methoxy-9-oxo-4-acridine carboxamide] | 42 | 98 | 0.008 | 0.08 | 80 | 78 | 38 | at least 100 fold | > 20 | ~3 | No significant inhibition | did not affect | not affected | 0.008 to 0.08 | 0.035 | 0.02 | ~0.02 | competitive | 27 |  |
| COc1cccc2c1C(=O)c1c(O)c3c(c(O)c1C2=O)C[C@@](O)(C(C)=O)C[C@@H]3O[C@H]1C[C@H](N)[C@H](O)[C@H](C)O1 [daunorubicin] |  |  |  |  |  |  |  |  |  |  |  |  |  |  |  |  |  |  |  | 721 |
